From patent US9174973B2, “Crystalline forms of azilsartan and preparation and uses thereof” (SUNSHINE LAKE PHARMA CO., LTD., priority 2011, dated 2015)

Key:
Assay type in all cases: physicochemical
[1] = Thermal Stability of crystalline form A; conditions: 60° C.
Experimental: A layer of crystalline form A having a thickness of less than 5 mm was place in a flat weighing bottle. […] Samples were taken out at 6 days, 11 days and 16 days and examined for purity by HPLC, appearance and crystalline form. The conditions for the HPLC measurements are as shown below. • Instrument: Agilent 1200HPLC • Column: Agilent Eclipse XDB-C18 4.6*150 mm, 5 μm • Detection wavelength: 254 nm • Mobile phase: A phase 10 mM ammonium acetate (pH=3.5) and B phase acetonitrile [table]

[2] = Humidity Stability of crystalline form A; conditions: 25° C., RH 90%+/−5%
Experimental: A layer of crystalline form A having a thickness of less than 5 mm was place in a flat weighing bottle. […] The conditions for the HPLC measurements are as shown below. • Instrument: Agilent 1200HPLC • Column: Agilent Eclipse XDB-C18 4.6*150 mm, 5 μm • Detection wavelength: 254 nm • Mobile phase: A phase 10 mM ammonium acetate (pH=3.5) and B phase acetonitrile [table]

[3] = solubility test of crystalline forms in 0.1M HCl (Chinese Pharmacopoeia 2010); conditions: 300 mg in 6 ml 0.1M HCl, 25° C.±2° C.
Experimental: The solubility of crystalline forms A, B, C and D was measured in accordance with the solubility test described in “Chinese Pharmacopoeia 2010”, Topic and Requirement 15. A crystalline form of azilsartan was grinded into powder. The powder (300 mg) was added to 6 ml of 0.1M HCl as the solvent at 25° C.±2° C. […] The total test time was 30 minutes. The solid was deemed as dissolved when no solid was detected in the mixture by human eyes. The solubility data of crystalline forms A, B, C and D of azilsartan are as shown below.

- Appearance ([1]; 11 days): White or off-
- Crystalline form ([1]; 11 days): Form A
- RT* (min.) 2.89 (HPLC peak) ([1]; 11 days): 0.01%
- RT* (min.) 3.9 (HPLC peak) ([1]; 11 days): 0.35%
- RT* (min.) 13.2 (azilsartan peak, purity by HPLC) ([1]; 11 days): 99.48%
- RT* (min.) 20.55 (HPLC peak) ([1]; 11 days): 0.02%
- RT* (min.) 22.8 (HPLC peak) ([1]; 11 days): 0.04%
- RT* (min.) 23.6 (HPLC peak) ([1]; 11 days): 0.02%
- RT* (min.) 27.5 (HPLC peak) ([1]; 11 days): 0.07%
- RT* (min.) 30.66 (HPLC peak) ([1]; 11 days): 0.02%
- Appearance ([1]; 16 days): White or off-
- Crystalline form ([1]; 16 days): Form A
- RT* (min.) 2.89 (HPLC peak) ([1]; 16 days): 0.01%
- RT* (min.) 3.9 (HPLC peak) ([1]; 16 days): 0.35%
- RT* (min.) 13.2 (azilsartan peak, purity by HPLC) ([1]; 16 days): 99.47%
- RT* (min.) 20.55 (HPLC peak) ([1]; 16 days): 0.02%
- RT* (min.) 22.8 (HPLC peak) ([1]; 16 days): 0.04%
- RT* (min.) 23.6 (HPLC peak) ([1]; 16 days): 0.02%
- RT* (min.) 27.5 (HPLC peak) ([1]; 16 days): 0.07%
- RT* (min.) 30.66 (HPLC peak) ([1]; 16 days): 0.02%
- Appearance ([2]; 6 days): White or off-
- Crystalline form ([2]; 6 days): Form A
- RT* (min.) 2.89 (HPLC peak) ([2]; 6 days): 0.02%
- RT* (min.) 3.9 (HPLC peak) ([2]; 6 days): 0.31%
- RT* (min.) 5.79 (HPLC peak) ([2]; 6 days): 0.01
- RT* (min.) 13.2 (azilsartan peak, purity by HPLC) ([2]; 6 days): 99.48%
- RT* (min.) 22.8 (HPLC peak) ([2]; 6 days): 0.05%
- RT* (min.) 23.6 (HPLC peak) ([2]; 6 days): 0.02%
- RT* (min.) 27.5 (HPLC peak) ([2]; 6 days): 0.07%
- RT* (min.) 30.66 (HPLC peak) ([2]; 6 days): 0.03%
- Appearance ([2]; 11 days): White or off-
- Crystalline form ([2]; 11 days): Form A
- RT* (min.) 2.89 (HPLC peak) ([2]; 11 days): 0.02%
- RT* (min.) 3.9 (HPLC peak) ([2]; 11 days): 0.33%
- RT* (min.) 13.2 (azilsartan peak, purity by HPLC) ([2]; 11 days): 99.51%
- RT* (min.) 22.8 (HPLC peak) ([2]; 11 days): 0.04%
- RT* (min.) 23.6 (HPLC peak) ([2]; 11 days): 0.02%
- RT* (min.) 27.5 (HPLC peak) ([2]; 11 days): 0.06%
- RT* (min.) 30.66 (HPLC peak) ([2]; 11 days): 0.03%
- Appearance ([2]; 16 days): White or off-
- Crystalline form ([2]; 16 days): Form A
- RT* (min.) 2.89 (HPLC peak) ([2]; 16 days): 0.01%
- RT* (min.) 3.9 (HPLC peak) ([2]; 16 days): 0.32%
- RT* (min.) 13.2 (azilsartan peak, purity by HPLC) ([2]; 16 days): 99.52%
- RT* (min.) 22.8 (HPLC peak) ([2]; 16 days): 0.04%
- RT* (min.) 23.6 (HPLC peak) ([2]; 16 days): 0.01%
- RT* (min.) 27.5 (HPLC peak) ([2]; 16 days): 0.05%
- RT* (min.) 30.66 (HPLC peak) ([2]; 16 days): 0.02%
- solubility [3]: very soluble
Structure (SMILES): CCOc1nc2cccc(C(=O)O)c2n1Cc1ccc(-c2ccccc2-c2noc(=O)[nH]2)cc1 [Form A]
- RT* (min.) 2.39 (HPLC peak) ([1]; 11 days): — (“—” refers to the peak area is less than 3000 or there is no peak)
- RT* (min.) 5.79 (HPLC peak) ([1]; 11 days): — (“—” refers to the peak area is less than 3000 or there is no peak)
- RT* (min.) 26.96 (HPLC peak) ([1]; 11 days): — (“—” refers to the peak area is less than 3000 or there is no peak)
- RT* (min.) 28.81 (HPLC peak) ([1]; 11 days): — (“—” refers to the peak area is less than 3000 or there is no peak)
- RT* (min.) 2.39 (HPLC peak) ([1]; 16 days): — (“—” refers to the peak area is less than 3000 or there is no peak)
- RT* (min.) 5.79 (HPLC peak) ([1]; 16 days): — (“—” refers to the peak area is less than 3000 or there is no peak)
- RT* (min.) 26.96 (HPLC peak) ([1]; 16 days): — (“—” refers to the peak area is less than 3000 or there is no peak)
- RT* (min.) 28.81 (HPLC peak) ([1]; 16 days): — (“—” refers to the peak area is less than 3000 or there is no peak)
- RT* (min.) 2.39 (HPLC peak) ([2]; 6 days): — (“—” refers to the peak area is less than 3000 or there is no peak)
- RT* (min.) 20.55 (HPLC peak) ([2]; 6 days): — (“—” refers to the peak area is less than 3000 or there is no peak)
- RT* (min.) 26.96 (HPLC peak) ([2]; 6 days): — (“—” refers to the peak area is less than 3000 or there is no peak)
- RT* (min.) 28.81 (HPLC peak) ([2]; 6 days): — (“—” refers to the peak area is less than 3000 or there is no peak)
- RT* (min.) 2.39 (HPLC peak) ([2]; 11 days): — (“—” refers to the peak area is less than 3000 or there is no peak)
- RT* (min.) 5.79 (HPLC peak) ([2]; 11 days): — (“—” refers to the peak area is less than 3000 or there is no peak)
- RT* (min.) 20.55 (HPLC peak) ([2]; 11 days): — (“—” refers to the peak area is less than 3000 or there is no peak)
- RT* (min.) 26.96 (HPLC peak) ([2]; 11 days): — (“—” refers to the peak area is less than 3000 or there is no peak)
- RT* (min.) 28.81 (HPLC peak) ([2]; 11 days): — (“—” refers to the peak area is less than 3000 or there is no peak)
- RT* (min.) 2.39 (HPLC peak) ([2]; 16 days): — (“—” refers to the peak area is less than 3000 or there is no peak)
- RT* (min.) 5.79 (HPLC peak) ([2]; 16 days): — (“—” refers to the peak area is less than 3000 or there is no peak)
- RT* (min.) 20.55 (HPLC peak) ([2]; 16 days): — (“—” refers to the peak area is less than 3000 or there is no peak)
- RT* (min.) 26.96 (HPLC peak) ([2]; 16 days): — (“—” refers to the peak area is less than 3000 or there is no peak)
- RT* (min.) 28.81 (HPLC peak) ([2]; 16 days): — (“—” refers to the peak area is less than 3000 or there is no peak)
